Source: US10463669B2, “Composition for treating or preventing liver cancer” (Seoul National University R&DB Foundation, priority 2016, dated 2019)

Tests used:
Type in all cases: cell-based, human
[1] = system: AKT phosphorylation in THLE-3 cells; assay: AKT phosphorylation, immunoblot assay
Experimental: (§1) Medium was exchanged every day, and the aforementioned cells were cultured for 4 days in 300 μmol/L hydrogen peroxide (H2O2) (Sigma Aldrich; H1009). In several experiments, the cells were treated for 1 hour with 5 mmol/L N-acetylcysteine (NAC) (Sigma Aldrich; A7250), 25 μmol/L idelalisib (LC Laboratoties, Woburn, Mass., USA; I-7447), 25 μmol/L perifosine (LC Laboratoties, Woburn, Mass., USA; P-6522), or 30 μmol/L GSK3β inhibitor (GSK3β inhibitor XI) (Santa Cruz; sc-204770) (31) before adding H2O2. Furthermore, sterilized distilled water (pH 7.0) was used as a negative control (i.e., mock treatment).
(§2) Total 2×10^5 cells were boiled for 5 minutes in 2×SDS sample buffer (100 mmol/L TrisHCl [pH 6.8], 4% SDS, 0.2% bromophenol blue, 20% glycerol, and 200 mmol/L β-mercaptoethanol), and then subjected to SDS-PAGE and Western blotting. To detect the TERT, the cells were cultured in 2×SDS sample buffer for 15 minutes at 55° C. TERT-specific (1:300, Rockland Immunochemicals, Gilbertsville, Pa., USA; 600-401-252), AKT-specific (1:1000, Cell Signaling Technology; #9272), phospho-AKT-specific (1:2000, Cell Signaling Technology; #4060), GAPDH-specific (1:2000, Santa Cruz Biotechnology; sc-47724), or β-actin-specific (1:2000, Sigma-Aldrich, St. Louis, Mo., USA; A5441) antibody was diluted in 5% skim milk or bovine serum albumin with TBS-Tween 20, cultured overnight at 4° C., washed, and cultured with HRP-conjugated secondary antibody (1:1000, Abcam; ab131368, or ab131366). By using FUSION-SOLO imager (Vilber Lourmat, Marne La Vallee, France), a chemical fluorescence image was obtained.

[2] = system: TERT expression in THLE-3 cells; assay: TERT expression, quantitative real time-PCR and immunoblot
Experimental: as §1
(§3) PCR was carried out by using TOPrealm qPCR 2×PreMIX (SYBR Green with high ROX) (Enzynomics, Daejeon, Korea; RT501M) and ABI Prism 7300 thermal cycler (Applied Biosystems, Foster City, Calif., USA). […] To examine the primer specificity, a dissociation step was additionally included.
as §2

[3] = system: TERT expression in HCC cell lines (Huh7 and Hep3B); assay: as above
Experimental: as §1, §3, §2

[4] = system: telomere length in HCC cell lines (Huh7 and Hep3B); assay: Telomere length (Southern blot, immunoFISH, Flow FISH, quantitative PCR)
Experimental: Volume of the hybridization buffer was adjusted to 100 μl per 10^5 cells. Next, each sample was cultured for 10 minutes in a water bath at 85° C. […] Total 15,000 to 20,000 nuclei were analyzed for the each separate culture. Telomere fluorescence intensity of the all nuclei at […] phase of the cell cycle was measured by using BD FACS Calibur flow cytometer (Becton Dickinson, Franklin Lakes, N.J., USA) in which CELLQUEST software is used. The established ImmunoFISH protocol (Plentz R R, et al., Hepatology. 2007; 45: 968-76) was used with slight modifications. The paraffin-embedded section was subjected to de-paraffinization using xylene, and then rehydrated using ethanol gradient. Antigen retrieval was carried out by boiling in 100 mmol/L sodium citrate (pH 6.0) for 10 minutes in a microwave. After permeation of proteinase K (15 μg/mL in PBS [pH 7.4]) for 20 minutes at 37° C., 8-oxo-dG-specific antibody (1:100, Abcam, Cambridge, Mass., USA; ab62623) was subjected to 1% BSA dilution in PBS 0.1% Triton X-100 and cultured overnight at room temperature. After washing, the slide was treated with Alexa 647 secondary antibody for 1 hour. […] After denaturation for 6 minutes at 90° C., the sample was hybridized for 2 hours at dark place. […] After washing, the slide was rinsed with PBS containing DAPI, and then sealed with a DAPI sealing agent (mounting medium) (Vector Laboratories, Burlingame, Calif., USA). Simultaneously, the inventors of the present invention carried out centromere staining as an internal control for telomere staining and 8-oxo-dG staining. […] For quantification of the telomere fluorescence intensity, centromere fluorescence intensity, and 8-oxo-dG fluorescence intensity, the same exposure time was employed. The telomere fluorescence level and 8-oxo-dG fluorescence level of tumor tissues were calculated by division of the fluorescence level in non-tumor tissues corresponding to 5 random fields. The image analysis was carried out by using Image-Pro plus 6.0 software (Media Cybernetics, Inc., Rockville, Md., USA). Telomere length was determined by using the non-radioactive chemical fluorescence TeloTAGGG telomere length assay (Roche; Cat. No. 12 209 136 001) according to the manual. Genomic DNA was separated from HCC cells using GeneJET Genomic DNA Purification Kit (Thermo Scientific; #K0721), and then 4 μg of the genomic DNA was digested for 16 hours at 37° C. with 20 units of […] digested DNA was subjected to 0.8% agarose gel electrophoresis, and then transferred to a positively charged nylon membrane using capillary transfer. The blotted DNA was hybridized for 16 hours at 42° C. with a digoxigenin (DIG)-labeled probe that is specific to the telomere repeat. After that, it was cultured for 30 minutes at room temperature with DIG-specific antibody conjugated to an alkaline phosphatase Based on quantitative PCR analysis using the genomic DNA extracted from cells, relative telomere repeat copy number (T) and single copy number (S) were determined, and the calculation was made like previous method in which T/S ratio is continuously modified (Cawthon R M. Telomere length measurement by a novel monochrome multiplex quantitative PCR method. Nucleic Acids Res. 2009; 37: e21).

[5] = THLE-3 cells after H2O2 treatment
[6] = HCC cells treated with 300 μmol/L H2O2, compared to control HCC cells not exposed to H2O2
[7] = 300 μmol/L H2O2-treated HCC cells plus idelalisib, compared to HCC cells treated with H2O2 only

Structure (SMILES)	AKT phosphorylation level [1, 5]	TERT expression level [2, 5]	TERT expression increased by [3, 6]	telomere length increased by [4, 6]	basal level AKT phosphorylation ([1]; THLE-3, idelalisib at a concentration of 25 μmol/L)	TERT expression ([2]; THLE-3 cells)	TERT expression reduced by [3, 7]	ROS-mediated increase in the TERT expression ([3]; H2O2-treated cells)	TERT expression ([3]; two HCC cell lines, no H2O2)	telomere length reduced by [4, 7]	ROS-mediated increase in telomere length ([4]; H2O2-treated cells)	telomere length ([4]; HCC cells, no H2O2)
OO [H2O2, hydrogen peroxide]	no change	no change	40%-45%	25%-30%								
CC[C@H](Nc1ncnc2nc[nH]c12)c1nc2cccc(F)c2c(=O)n1-c1ccccc1 [idelalisib, 5-fluoro-3-phenyl-2-[(1S)-1-(7H-purin-6-ylamino)propyl]-4(3H)-quinazolinone]					not reduced	not reduced	65%-70%	almost completely inhibited	reduced	40-45%	almost completely inhibited	reduced
